Reference: patent US9670157B2, “Benzylamine derivatives” (KALVISTA PHARMACEUTICALS LIMITED, priority 2013, dated 2017)

Columns and labels:
[1] = Pharmacokinetics following a single oral dose in rats; format: in vivo; details: rat, nominal 10 mg/kg, male Sprague-Dawley rats, plasma
Protocol: Pharmacokinetic studies of selected examples were performed to assess the pharmacokinetics following a single oral dose in male Sprague-Dawley rats. Typically, either two or three rats were given a single po dose of 5 mL/kg of a nominal 2 mg/mL (10 mg/kg) composition of test compound in either 5% cremophor:5% ethanol:90% phosphate buffered saline or 20% Labrasol:80% water. Following dosing, blood samples were collected over a period of 8 hours. Typical sample times include 5, 15 and 30 minutes then 1, 2, 4, 6 and 8 hours. Following collection, blood samples were centrifuged and the plasma fraction analysed for concentration of test compound by LCMS.

Human KLK1 = Human KLK1 (Homo sapiens (Human), UniProt P06870); assay: Determination of the IC50 for KLK1; format: biochemical; details: 37° C., fluorogenic substrate H-DVal-Leu-Arg-AFC
Sequence of Human KLK1 (P06870 25-262): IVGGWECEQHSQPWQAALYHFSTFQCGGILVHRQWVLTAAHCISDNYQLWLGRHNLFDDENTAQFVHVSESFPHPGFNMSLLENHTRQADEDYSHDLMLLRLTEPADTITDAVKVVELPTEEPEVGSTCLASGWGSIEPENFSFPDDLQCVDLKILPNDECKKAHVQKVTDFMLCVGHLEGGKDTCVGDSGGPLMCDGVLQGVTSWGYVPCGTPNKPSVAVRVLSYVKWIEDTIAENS
Method in brief: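 KLK1 inhibition was measured in vitro following standard published methods. Human KLK1 (Callbiochem) was incubated at 37° C. with the fluorogenic substrate H-DVal-Leu-Arg-AFC in the presence of a range of test compound concentrations. Residual enzyme activity, taken as the initial reaction rate, was followed by the change in optical absorbance at 410 nm, and IC50 values were derived.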

Human plasma kallikrein = Human plasma kallikrein (Homo sapiens (Human), UniProt P03952); assay: Determination of the IC50 for Plasma Kallikrein; format: biochemical; details: 37° C., fluorogenic substrate H-DPro-Phe-Arg-AFC; read-out: IC50 (human PKal)
Sequence of Human plasma kallikrein (P03952 391-638): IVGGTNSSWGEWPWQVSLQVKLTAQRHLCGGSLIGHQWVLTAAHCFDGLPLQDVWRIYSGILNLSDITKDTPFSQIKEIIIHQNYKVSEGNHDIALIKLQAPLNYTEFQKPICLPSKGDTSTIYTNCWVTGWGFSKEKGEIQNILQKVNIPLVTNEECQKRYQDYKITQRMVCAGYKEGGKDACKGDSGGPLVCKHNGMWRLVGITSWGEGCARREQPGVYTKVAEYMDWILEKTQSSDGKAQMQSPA
Sequence of Human plasma kallikrein (P03952 20-390 partner): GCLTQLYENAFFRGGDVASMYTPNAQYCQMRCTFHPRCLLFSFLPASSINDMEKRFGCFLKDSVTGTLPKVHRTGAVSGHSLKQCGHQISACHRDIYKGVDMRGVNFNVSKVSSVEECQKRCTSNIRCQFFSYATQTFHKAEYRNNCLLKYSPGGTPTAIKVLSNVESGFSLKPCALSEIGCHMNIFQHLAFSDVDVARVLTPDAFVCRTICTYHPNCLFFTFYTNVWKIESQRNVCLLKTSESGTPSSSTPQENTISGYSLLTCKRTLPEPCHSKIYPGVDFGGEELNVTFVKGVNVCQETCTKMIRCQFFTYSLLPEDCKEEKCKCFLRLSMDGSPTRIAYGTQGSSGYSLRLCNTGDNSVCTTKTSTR
Protocol: Human plasma kallikrein (Protogen) was incubated at 37° C. with the fluorogenic substrate H-DPro-Phe-Arg-AFC and various concentrations of the test compound. Residual enzyme activity (initial rate of reaction) was determined by measuring the change in optical absorbance at 410 nm and the IC50 value for the test compound was determined.

thrombin = thrombin (Homo sapiens (Human), UniProt P00734); assay: Determination of Enzyme Selectivity: thrombin; format: biochemical; details: substrate at Km concentration
Protocol: (§1) Human serine protease enzymes plasmin, thrombin, trypsin, Factor Xa and Factor XIIa were assayed for enzymatic activity using an appropriate fluorogenic substrate. Protease activity was measured by monitoring the accumulation of liberated fluorescence from the substrate over 5 minutes. The linear rate of fluorescence increase per minute was expressed as percentage (%) activity. The Km for the cleavage of each substrate was determined by standard transformation of the Michaelis-Menten equation.

plasmin = plasmin (Homo sapiens (Human), UniProt P00747); assay: Determination of Enzyme Selectivity: plasmin; format: biochemical; details: substrate at Km concentration
Sequence of plasmin (P00747 581-810): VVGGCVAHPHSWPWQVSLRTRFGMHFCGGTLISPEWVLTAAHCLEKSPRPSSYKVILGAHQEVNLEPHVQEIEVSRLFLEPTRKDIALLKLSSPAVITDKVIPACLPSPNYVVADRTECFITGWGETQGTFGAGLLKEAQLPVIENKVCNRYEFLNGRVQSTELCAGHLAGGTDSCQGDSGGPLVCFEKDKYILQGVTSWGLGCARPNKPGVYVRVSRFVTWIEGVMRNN
Sequence of plasmin (P00747 97-580 partner): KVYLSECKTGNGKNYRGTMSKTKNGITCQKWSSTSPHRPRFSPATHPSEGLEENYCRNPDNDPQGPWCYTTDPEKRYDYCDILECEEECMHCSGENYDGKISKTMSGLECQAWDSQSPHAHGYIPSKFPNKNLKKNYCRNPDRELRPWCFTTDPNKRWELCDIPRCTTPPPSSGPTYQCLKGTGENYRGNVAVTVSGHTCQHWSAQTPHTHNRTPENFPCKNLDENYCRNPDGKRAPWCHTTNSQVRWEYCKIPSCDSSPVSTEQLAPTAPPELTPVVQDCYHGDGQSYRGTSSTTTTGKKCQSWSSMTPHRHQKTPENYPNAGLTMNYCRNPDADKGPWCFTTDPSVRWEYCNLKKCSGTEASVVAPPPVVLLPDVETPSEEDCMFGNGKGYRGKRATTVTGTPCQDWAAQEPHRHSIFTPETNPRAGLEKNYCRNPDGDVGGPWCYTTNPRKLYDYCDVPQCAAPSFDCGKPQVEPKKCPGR
Protocol: as §1

Factor XIIa = Factor XIIa (Homo sapiens (Human), UniProt P00748); assay: Determination of Enzyme Selectivity: Factor XIIa; format: biochemical; details: substrate at Km concentration
Sequence of Factor XIIa (P00748 373-615): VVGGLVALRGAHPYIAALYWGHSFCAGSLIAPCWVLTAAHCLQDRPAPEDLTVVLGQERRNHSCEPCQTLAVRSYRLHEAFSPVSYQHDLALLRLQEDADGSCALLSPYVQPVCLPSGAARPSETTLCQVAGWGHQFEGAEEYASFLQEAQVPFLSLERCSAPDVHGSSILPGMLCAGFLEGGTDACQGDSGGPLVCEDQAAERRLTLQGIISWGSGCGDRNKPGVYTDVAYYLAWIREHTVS
Protocol: as §1

trypsin = assay: Determination of Enzyme Selectivity: trypsin; format: biochemical, Human; details: substrate at Km concentration
Protocol: as §1

| IC50 (Human KLK1) [nM] | IC50 (Human plasma kallikrein) [nM] | SMILES | also measured |
| --- | --- | --- | --- |
| > 10000 | 170 | Cc1cc(C(=O)NCc2ccc(CN)cc2)c(C)n1Cc1csc(-c2ccsc2)n1 [Example 37, 2,5-Dimethyl-1-(2-thiophen-3-yl-thiazol-4-ylmethyl)-1H-pyrrole-3-carboxylic acid 4-aminomethyl-benzylamide] | Cmax [1]: 171 ng/mL; Tmax [1]: 3.5 h |
| > 10000 | 196 | Cc1cc(C(=O)NCc2ccc(CN)nc2)c(C)n1Cc1csc(-c2ccccc2)n1 [Example 43, 2,5-Dimethyl-1-(2-phenyl-thiazol-4-ylmethyl)-1H-pyrrole-3-carboxylic acid (6-aminomethyl-pyridin-3-ylmethyl)-amide] | Cmax [1]: 71 ng/mL; Tmax [1]: 4 h |
| > 10000 | 135 | Cc1cc(C(=O)NCc2ccc(CN)c(F)c2)c(C)n1Cc1csc(-c2ccccc2)n1 [Example 45, 2,5-Dimethyl-1-(2-phenyl-thiazol-4-ylmethyl)-1H-pyrrole-3-carboxylic acid 4-aminomethyl-3-fluoro-benzylamide] | Cmax [1]: 228 ng/mL; Tmax [1]: 2.58 h |
| > 10000 | 452 | NCc1ccc(CNC(=O)c2cn(Cc3csc(-c4ccccc4)n3)nc2C(F)(F)F)cc1 [Example 83, 1-(2-Phenyl-thiazol-4-ylmethyl)-3-trifluoromethyl-1H-pyrazole-4-carboxylic acid 4-aminomethyl-benzylamide] | IC50 (thrombin): > 40000 nM; IC50 (plasmin): 27200 nM; IC50 (Factor XIIa): > 8510 nM; IC50 (trypsin): 26600 nM |
| 6310 | 4 | Cc1cnn(Cc2ccc(Cn3c(C)cc(C(=O)NCc4c(C)cc(CN)cc4C)c3C)cc2)c1 [Example 101, 2,5-Dimethyl-1-[4-(4-methyl-pyrazol-1-ylmethyl)-benzyl]-1H-pyrrole-3-carboxylic acid 4-aminomethyl-2,6-dimethyl-benzylamide] | Cmax [1]: 67 ng/mL; Tmax [1]: 5 h; IC50 (Factor XIIa): > 10000 nM |
| > 10000 | 2580 | Cc1cnn(Cc2ccc(Cn3cc(C(=O)NCc4ccc(C5(N)CC5)cc4)nn3)cc2)c1 [Example 110, 1-[4-(4-Methyl-pyrazol-1-ylmethyl)-benzyl]-1H-[1,2,3]triazole-4-carboxylic acid 4-(1-amino-cyclopropyl)-benzylamide] |  |
| > 10000 | 1 | Cc1cnn(Cc2ccc(Cn3cc(C(=O)NCc4c(C)cc(CN)cc4C)cn3)cc2)c1 [Example 111, 1-[4-(4-Methyl-pyrazol-1-ylmethyl)-benzyl]-1H-pyrazole-4-carboxylic acid 4-aminomethyl-2,6-dimethyl-benzylamide] |  |
| > 10000 | 2 | Cc1cnn(Cc2ccc(Cn3cnc(C(=O)NCc4c(C)cc(CN)cc4C)c3)cc2)c1 [Example 112, 1-[4-(4-Methyl-pyrazol-1-ylmethyl)-benzyl]-1H-imidazole-4-carboxylic acid 4-aminomethyl-2,6-dimethyl-benzylamide] |  |
| > 10000 | 2 | Cc1cnn(Cc2ccc(Cn3cc(C(=O)NCc4c(C)cc(CN)cc4C)nn3)cc2)c1 [Example 113, 1-[4-(4-Methyl-pyrazol-1-ylmethyl)-benzyl]-1H-[1,2,3]triazole-4-carboxylic acid 4-aminomethyl-2,6-dimethyl-benzylamide] |  |
| > 10000 | 0.6 | Cc1cnn(Cc2ccc(Cn3cc(C(=O)NCc4c(C)cc(CN)cc4C)c(C)n3)cc2)c1 [Example 114, 3-Methyl-1-[4-(4-methyl-pyrazol-1-ylmethyl)-benzyl]-1H-pyrazole-4-carboxylic acid 4-aminomethyl-2,6-dimethyl-benzylamide] |  |
| > 10000 | 8 | Cc1cnn(Cc2ccc(Cn3ncc(C(=O)NCc4c(C)cc(CN)cc4C)c3C)cc2)c1 [Example 115, 5-Methyl-1-[4-(4-methyl-pyrazol-1-ylmethyl)-benzyl]-1H-pyrazole-4-carboxylic acid 4-aminomethyl-2,6-dimethyl-benzylamide] |  |
| > 10000 | 11700 | Cc1cnn(Cc2ccc(Cn3nc(C)c(C(=O)NCc4c(C)cc(CN)cc4C)c3C)cc2)c1 [Example 116, 3,5-Dimethyl-1-[4-(4-methyl-pyrazol-1-ylmethyl)-benzyl]-1H-pyrazole-4-carboxylic acid 4-aminomethyl-2,6-dimethyl-benzylamide] |  |
| > 10000 | 51 | Cc1cnn(Cc2ccc(Cn3cc(C(=O)NCc4ccc(CN)c(F)c4)c(C(F)(F)F)n3)cc2)c1 [Example 117, 1-[4-(4-Methyl-pyrazol-1-ylmethyl)-benzyl]-3-trifluoromethyl-1H-pyrazole-4-carboxylic acid 4-aminomethyl-3-fluoro-benzylamide] |  |
| > 10000 | 1 | Cc1cnn(Cc2ccc(Cn3cc(C(=O)NCc4c(C)cc(CN)cc4C)c(C(F)(F)F)n3)cc2)c1 [Example 118, 1-[4-(4-Methyl-pyrazol-1-ylmethyl)-benzyl]-3-trifluoromethyl-1H-pyrazole-4-carboxylic acid 4-aminomethyl-2,6-dimethyl-benzylamide] |  |
| > 10000 | 9 | Cc1cnn(Cc2ccc(Cn3cc(C(=O)NCc4ccc(CN)c(F)c4C)c(C(F)(F)F)n3)cc2)c1 [Example 119, 1-[4-(4-Methyl-pyrazol-1-ylmethyl)-benzyl]-3-trifluoromethyl-1H-pyrazole-4-carboxylic acid 4-aminomethyl-3-fluoro-2-methyl-benzylamide] | IC50 (Factor XIIa): > 40000 nM |
| > 10000 | 155 | CCn1c(C(=O)NCc2ccc(CN)cc2)cc(C)c1Cc1ccc(Cn2cc(C)cn2)cc1 [Example 121, 1-Ethyl-4-methyl-5-[4-(4-methyl-pyrazol-1-ylmethyl)-benzyl]-1H-pyrrole-2-carboxylic acid 4-aminomethyl-benzylamide] |  |
| > 10000 | 151 | CCn1c(C(=O)NCc2ccc(CN)cc2)cc(C)c1Cc1ccc(Cn2ccccc2=O)cc1 [Example 122, 1-Ethyl-4-methyl-5-[4-(2-oxo-2H-pyridin-1-ylmethyl)-benzyl]-1H-pyrrole-2-carboxylic acid 4-aminomethyl-benzylamide] |  |
| > 10000 | 2150 | CCn1c(C(=O)NCc2ccc(CN)cc2)cc(C)c1Cc1csc(-c2ccccc2)n1 [Example 123, 1-Ethyl-4-methyl-5-(2-phenyl-thiazol-4-ylmethyl)-1H-pyrrole-2-carboxylic acid 4-aminomethyl-benzylamide] |  |
| 301 | 2 | Cc1ccc2cc(Cn3cc(C(=O)NCc4c(C)cc(CN)cc4C)c(C)n3)ccc2n1 [Example 124, 3-Methyl-1-(2-methyl-quinolin-6-ylmethyl)-1H-pyrazole-4-carboxylic acid 4-aminomethyl-2,6-dimethyl-benzylamide] | IC50 (Factor XIIa): > 40000 nM |
| 657 | 3 | Cc1ccc2cc(Cn3ncc(C(=O)NCc4c(C)cc(CN)cc4C)c3C)ccc2n1 [Example 125, 5-Methyl-1-(2-methyl-quinolin-6-ylmethyl)-1H-pyrazole-4-carboxylic acid 4-aminomethyl-2,6-dimethyl-benzylamide] | IC50 (Factor XIIa): > 40000 nM |
| 566 |  | Cc1ccc2cc(Cn3cc(C(=O)NCc4c(C)cc(CN)cc4C)c(C(F)(F)F)n3)ccc2n1 [Example 126, 1-(2-Methyl-quinolin-6-ylmethyl)-3-trifluoromethyl-1H-pyrazole-4-carboxylic acid 4-aminomethyl-2,6-dimethyl-benzylamide] | IC50 (Factor XIIa): > 40000 nM |
| > 10000 |  | Cc1ccc2cc(Cn3ncc(C(=O)NCc4c(C)cc(CN)cc4C)c3C(F)(F)F)ccc2n1 [Example 127, 1-(2-Methyl-quinolin-6-ylmethyl)-5-trifluoromethyl-1H-pyrazole-4-carboxylic acid 4-aminomethyl-2,6-dimethyl-benzylamide] | IC50 (Factor XIIa): > 40000 nM |
| 2660 | 934 | Cc1ccc2cc(Cn3c(C)cc(C(=O)NCc4c(C)cc(CN)cc4C)c3C)ccc2n1 [Example 128, 2,5-Dimethyl-1-(2-methyl-quinolin-6-ylmethyl)-1H-pyrrole-3-carboxylic acid 4-aminomethyl-2,6-dimethyl-benzylamide] |  |
| > 10000 | 24 | Cc1cc(CN)cc(C)c1CNC(=O)c1cn(Cc2ccnc(N3CCCC3)c2)nc1C(F)(F)F [Example 129, 1-(2-Pyrrolidin-1-yl-pyridin-4-ylmethyl)-3-trifluoromethyl-1H-pyrazole-4-carboxylic acid 4-aminomethyl-2,6-dimethyl-benzylamide] |  |
